# Experimental data taken from publication PMC3509069, “A DKP Cyclo(L-Phe-L-Phe) Found in Chicken Essence Is a Dual Inhibitor of the Serotonin Transporter and Acetylcholinesterase” (PLoS ONE, 2012).
# Target: T1, acetylcholinesterase (AChE) (Homo sapiens, UniProt P22303)
# T1 construct: amphiphilic form from human erythrocytes
# Assay: colorimetric AChE assay with MATP+ substrate
# Type: biochemical
# T1 sequence (P22303 other isoform, or with tags, fused parts or gaps): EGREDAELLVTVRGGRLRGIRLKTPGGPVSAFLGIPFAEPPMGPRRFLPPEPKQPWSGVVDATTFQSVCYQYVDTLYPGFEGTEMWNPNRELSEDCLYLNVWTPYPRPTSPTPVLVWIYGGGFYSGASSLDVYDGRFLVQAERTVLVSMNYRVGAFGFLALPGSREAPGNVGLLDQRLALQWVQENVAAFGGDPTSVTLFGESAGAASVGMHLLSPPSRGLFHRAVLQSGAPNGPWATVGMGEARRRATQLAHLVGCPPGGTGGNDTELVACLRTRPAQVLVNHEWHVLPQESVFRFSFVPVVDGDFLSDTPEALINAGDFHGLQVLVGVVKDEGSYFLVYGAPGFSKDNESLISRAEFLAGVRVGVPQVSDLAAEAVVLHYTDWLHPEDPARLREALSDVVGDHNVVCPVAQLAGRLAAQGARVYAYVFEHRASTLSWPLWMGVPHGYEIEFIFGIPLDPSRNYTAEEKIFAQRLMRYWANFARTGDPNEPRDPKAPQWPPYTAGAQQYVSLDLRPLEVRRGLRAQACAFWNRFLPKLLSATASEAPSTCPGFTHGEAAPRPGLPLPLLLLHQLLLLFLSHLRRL
row,Structure (SMILES),IC50 [µM]
1,O=C1NC(Cc2ccccc2)C(=O)NC1Cc1ccccc1 [cyclo(L-Phe-L-Phe)],~3.4
2,O=C1[C@@H]2CCCN2C(=O)[C@@H]2CCCN12 [cyclo(L-Pro-L-Pro)],160
